Test results as given in paper PMC10797667 (ACS catalysis, 2020).

How the values were obtained:
[1] = target: ANT4' (aminoglycoside nucleotidyl transferase 4') (Staphylococcus aureus, UniProt P05057); test: X-ray crystal structure; format: binding; conditions: binary complex, 0.1-0.2 M MgCl2, pH 7-8; active site
[2] = target: ANT4' (aminoglycoside nucleotidyl transferase 4') (Staphylococcus aureus, UniProt P05057, E52D/T130K); test: biochemical
[3] = target: ANT4' (aminoglycoside nucleotidyl transferase 4') (Staphylococcus aureus, UniProt P05057, T130K); test: biochemical

`NC[C@@H]1O[C@H](O[C@H]2[C@@H](O)[C@H](O[C@@H]3[C@@H](O)[C@H](N)C[C@H](N)[C@H]3O[C@H]3O[C@H](CN)[C@@H](O)[C@H](O)[C@H]3N)O[C@@H]2CO)[C@H](N)[C@@H](O)[C@@H]1O` [neomycin] was tested, and the X-ray crystal structure [1] was “A binary neomycin complex was also determined in the wild-type ANT4’ enzyme”, the Kd [2] was 870 ± 80 nM and the Kd [3] was 340 ± 30 nM.
